Laboratory results published in patent US12319913B2, “5-halouracil-modified microRNAs and their use in the treatment of cancer” (The Research Foundation for The State University of New York, priority 2018, dated 2025).
[5FU] = 5-fluorouracil base replacing uracil

Assays:
A549 lung cancer cells = assay: Cell proliferation, A549; format: cell-based, human; details: A549, compared to negative controls
Method: (§1) For transfections, 1×10^5 cells were plated in six-well plates and transfected with 100 nM of control non-specific miRNA (Thermo Fischer), a modified microRNA, or exogenous native microRNA after 24 hours using Oligofectamine (Thermo Fischer) following the manufacturer's protocols. For reagent free transfection, cells were plated in 6 well plates at (1×10^5) cells per well. Twenty-four hours later 100 pmol miRNA (Control, miR-15a, Mimic-1) were diluted in Optimem (Thermo Fischer) and added to the plate. Media was changed after 24 hours. Media was supplemented with 10% fetal bovine serum (Thermo Fischer). Briefly, cells were cultured in growth media (DMEM/F12 supplemented with B27, 10 ng/mL bFGF, and 20 ng/mL EGF (Life Technologies) in ultra-low attachment flasks) for up to 6 days. The spheroid cells were maintained by collection through gentle centrifugation, dissociation to single cells and replating.
(§2) Cell proliferation assay: Twenty-four hours after transfection, cells were seeded in 96-well plates at a density of 2000 cells per well. The cell proliferation assay was performed on days 1 to 5 by incubating 10 μl WST-1 (Roche Applied Science, Mannheim, Germany) in the culture medium for 1 h and reading the absorbance at 450 and 630 nm. The cell proliferation rate was calculated by subtracting the […]. Experiments for the cell proliferation assay were performed at least three times. The O.D. was calculated by subtracting the absorbance at 630 nm from that at 450 nm. Proliferation experiments were performed three times.

[1] = test system: acute lymphocytic leukemia cell line (REH); assay: Cell proliferation, REH; format: cell-based, human; details: compared to negative controls
Method: as §1, §2

[2] = test system: Panc-1 pancreatic cancer cells; assay: Cell proliferation, Panc-1; format: cell-based, human; details: PANC-1; 50 nM, 25 nM, 12.5 nM, 6.25 nM, and 3.125 nM
Method: as §1, with “For transfections, 1×10^5 cells were plated in six-well plates and transfected with 100 nM of control non-specific miRNA (Thermo Fischer), a modified microRNA, or exogenous native microRNA after 24 hours using Oligofectamine (Thermo Fischer) following the manufacturer's protocols.” left out
as §2

[3] = test system: AsPC-1 pancreatic cancer cells; assay: Cell proliferation, AsPC-1; format: cell-based, human; details: APSC-1; 50 nM, 25 nM, 12.5 nM, 6.25 nM, and 3.125 nM
Method: as §1, with “For transfections, 1×10^5 cells were plated in six-well plates and transfected with 100 nM of control non-specific miRNA (Thermo Fischer), a modified microRNA, or exogenous native microRNA after 24 hours using Oligofectamine (Thermo Fischer) following the manufacturer's protocols.” left out
as §2

[4] = test system: acute lymphocytic leukemia cell line (REH); assay: Cell proliferation, REH; format: cell-based, human; details: 50 nM, 25 nM, 12.5 nM, 6.25 nM, and 3.125 nM
[5] = test system: SKBR3 breast cancer cells; assay: Cell proliferation, SKBR3; format: cell-based, human; details: SKBR3, compared to negative controls
Method: as §1, §2

[6] = test system: Hs766T pancreatic cancer cells; assay: Cell proliferation, Hs766T; format: cell-based, human; details: compared to negative controls
Method: as §1, §2

AGS stomach cancer cells = assay: Cell proliferation, AGS; format: cell-based, human; details: compared to negative controls
Method: as §1, §2

REH leukemia cells = assay: Cell cycle analysis, REH leukemia cells; format: cell-based, human; details: 50 nM, compared to the control
Method: (§3) Cell cycle analysis: Twenty-four hours after transfection, cells were harvested and resuspended at 0.5 to 1×10^6 cells/mL in modified Krishan's buffer supplemented with 0.02 mg/mL RNase H and 0.05 mg/mL propidium iodide. Stained cells were detected by flow cytometry and results were analyzed with Modfit LT™ software. The experiments for cell cycle analysis were performed at least three times.

[7] = test system: MDA-MB-231 triple negative breast cancer cells; assay: MTT cell proliferation, MDA-MB-231, with or without oligofectamine; format: cell-based, human; details: for cell proliferation without delivery vehicle (no oligofectamine): MDA-MB-231, MTT assay; for cell proliferation in the presence of oligofectamine: MDA-MB-231, MTT assay for 6 days, vs miR-NC
Method: as §1
Furthermore, to test whether or not the modified microRNAs of the present disclosure can be delivered directly to cells and taken up by the cancer cells without the use of transfer agents or vehicles (i.e., oligofectamine), MDA-MB-231 triple negative breast cancer cells were transfected with miR-NC (negative control), exogenous unmodified miR-200b or miR-489, 5-FU-miR-200b or modified miR-489 by using oligofectamine or without delivery vehicle. As shown in FIGS. 17A-17B and 20A, the effects of expression of the exemplary modified miRs tested on breast cancer cell proliferation were monitored by MTT assay for 6 days upon transfection or incubation.

MDC1 and SUZ12 = assay: Western blot of MDC1 and SUZ12 in triple negative breast cancer cells; format: cell-based, human; details: triple negative breast cancer cells, western blot
Method: (§4) Western immunoblot analysis: Forty-eight hours after transfection, equal amounts of protein (15 μg) extracted from cells lysed in RIPA buffer with protease inhibitor (Sigma) and were separated on 10%-12% sodium dodecyl sulfate-polyacrylamide gels using standard procedures. The primary antibodies used for the analysis were rabbit anti-YAP1 monoclonal antibody (1:10000) (Cell Signaling Technologies), anti-DLCK1 (1:500) (Abcam), anti-BCL2 (1:500) (NeoMarkers), anti-MDC1 (1:500), anti-SUZ12 (1:500), anti-pChk-1 (1:500), anti beta-actin (1:500), anti-BMI-1 (1:10000) (Cell Signaling Technologies), mouse anti-human TS antibody (1:500), anti-α-tubulin (1:50000) (Santa Cruz Biotech Inc.), anti-GAPDH (1:100000) (Santa Cruz Biotech Inc.), anti-E2F3 (1:500) (Santa Cruz Biotech Inc.), Horseradish peroxidase-conjugated antibodies against mouse or rabbit (1:5000, Santa Cruz Biotech Inc.) were used as the secondary antibodies. Protein bands were visualized with autoradiography film using SuperSignal West Pico Chemiluminescent Substrate (Thermo Fischer). Western blot density was quantified using Image J software.

[8] = test system: HCT116 colon cancer cells; assay: WST-1 cell proliferation assay, HCT116; format: cell-based, human; details: HCT-116, WST-1, six days after transfection
Method: as §1, with “1×10^5 cells were plated in six-well plates and transfected with 100 nM of control non-specific miRNA (Thermo Fischer), a modified microRNA, or exogenous native microRNA after 24 hours using Oligofectamine” left out
as §2

colon cancer stem cells = assay: Anchorage-independent colony formation (soft agar); format: cell-based, human; details: soft agar / Matrigel matrix
Method: Anchorage-independent proliferation was studied to determine cancer cell colony forming ability. Cancer cells were trypsinized and counted and a total of 1×10^5 cells per well were transfected in 6-well plates with 25 nM modified microRNA or native miRs or a negative control miRNA with oligofectamine, and 6 hours after transfection, cells were recounted. A total of 20,000 cells in 0.35% agar (Bacto Agar; Becton Dickinson) were layered on top of 1 mL of a solidified 0.6% agar layer in a 35-mm dish. Growth media with B27, 10 ng/mL bFGF, and 20 ng/mL EGF were included in both layers. After 2 weeks of incubation, colonies more than […] in diameter were counted.

[9] = test system: YAP1, BMI1, DCLK1 and BCL2; assay: Western blot of miR-15a targets in HCT-116 colon cancer stem cells; format: cell-based, human; details: three days following transfection
Method: as §4, with “[…],” for “Forty-eight hours after transfection,”, “software. […]” for “software.”

HCT-116 cells = assay: Cell cycle analysis by flow cytometry, colon cancer cells; format: cell-based, human; details: colon cancer cells, compared to the control
Method: as §3

TS-FdUMP = biological target: T1, TS-FdUMP (Homo sapiens, UniProt P04818); assay: Western blot of TS / TS-FdUMP in MDA-MB-231 cells; format: cell-based; details: MDA-MB-231 cell line
T1 construct: endogenous in cells
Method: as §4

fibronectin = assay: Western blot of miR-200b target in breast cancer cells; format: cell-based, human; details: compared to exogenous native miR-200b and negative control
Method: as §4

[10] = test system: MDA-MB-231 breast cancer cells; assay: Cell cycle analysis, MDA-MB-231 breast cancer cells; format: cell-based, human; details: compared to native exogenous microRNAs or NC
Method: as §3

T1 sequence (P04818 2-313 limits assumed): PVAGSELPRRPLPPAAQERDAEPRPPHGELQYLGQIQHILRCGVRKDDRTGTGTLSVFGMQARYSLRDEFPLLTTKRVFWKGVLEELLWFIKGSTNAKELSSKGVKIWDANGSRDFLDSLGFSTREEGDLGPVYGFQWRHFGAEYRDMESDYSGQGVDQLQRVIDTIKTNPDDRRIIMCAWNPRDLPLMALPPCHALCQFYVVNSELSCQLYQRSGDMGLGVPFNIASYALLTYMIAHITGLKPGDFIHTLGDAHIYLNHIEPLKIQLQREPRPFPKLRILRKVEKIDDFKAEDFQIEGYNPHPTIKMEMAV

**Q.** For “U^FGAGGU^FAGU^FAGGU^FU^FGU^FAU^FAGU^FU^F [modified miR-let-7]”, which “lung cancer cell proliferation” value (A549 lung cancer cells) is on record?
**A.** The value was “inhibited”.

**Q.** What about the “leukemia cancer cell proliferation” value [1] of the same substance?
**A.** Its value is “inhibited”.

**Q.** What about the “cell proliferation, dose dependence” value [2] of the same substance?
**A.** Its value is “inhibited in a dose dependent manner”.

**Q.** And the “cell proliferation, dose dependence” value [3]?
**A.** The value was “inhibited in a dose dependent manner”.

**Q.** And the “leukemia cancer cell proliferation, dose dependence” value [4]?
**A.** The value was “inhibited in a dose dependent manner”.

**Q.** And the “breast cancer cell proliferation” value [5]?
**A.** The value was “inhibited”.

**Q.** What about the “pancreatic cancer cell proliferation” value [6] of the same substance?
**A.** The value was “inhibited”.

**Q.** What about the “gastric cancer cell proliferation” value (AGS stomach cancer cells) of the same substance?
**A.** Its value is “inhibited”.

**Q.** What about the G1/S ratio (REH leukemia cells) of the same substance?
**A.** Its G1/S ratio is “significant fold increase in the G1/S ratio”.

**Q.** Which results are given for “CGACGGCAUAUACACUACAGUG (chemistry not fully specified; listed as Homo sapiens) [native miR-489, 31]”?
**A.** cell proliferation without delivery vehicle (no oligofectamine) [7]: did not inhibit cell growth; cell proliferation in the presence of oligofectamine [7]: reduced the rate of cell proliferation; cancer cell proliferation, native miR without 5-FU chemotherapy ([7]; MDA-MB-231, MTT, compared with 5 μM 5-FU alone): reduces cancer cell proliferation in a manner similar to that exhibited when cells are treated with 5-FU alone; MDC1 and SUZ12 protein expression (MDC1 and SUZ12): reduction of MDC1 and SUZ12 protein expression

**Q.** With “UAGCAGCACAUAAUGGUUUGUG (RNA, backbone not given here; listed as Homo sapiens) [unmodified miR-15a, reference compound]” as the substance, how does the “decrease of cell proliferation compared to control” value [8] read?
**A.** The value was 53%.

**Q.** What about the “colony / sphere formation” value (colon cancer stem cells) of the same substance?
**A.** Its value is “very few colonies”.

**Q.** And the “protein levels of YAP1, BMI1, DCLK1 and BCL2” value [9]?
**A.** Its value is “reduced”.

**Q.** And the “increase in the G1/S ratio” value (HCT-116 cells)?
**A.** Its value is “about 3 fold”.

**Q.** What does the source list for “GU^FCCAGU^FU^FU^FU^FCCCAGGAAU^FCCCU^F (GUCCAGUUUUCCCAGGAAUCCCU; RNA, [5FU] at 2, 7, 8, 9, 10, 19, 23, backbone not given here) [modified miR-145]”?
**A.** lung cancer cell proliferation (A549 lung cancer cells): inhibited; leukemia cancer cell proliferation [1]: inhibited; cell proliferation, dose dependence [2]: inhibited in a dose dependent manner; cell proliferation, dose dependence [3]: inhibited in a dose dependent manner; leukemia cancer cell proliferation, dose dependence [4]: inhibited in a dose dependent manner; breast cancer cell proliferation [5]: inhibited; pancreatic cancer cell proliferation [6]: inhibited; gastric cancer cell proliferation (AGS stomach cancer cells): inhibited; G1/S ratio (REH leukemia cells): significant fold increase in the G1/S ratio

**Q.** “U^FAAU^FACU^FGCCU^FGGU^FAAU^FGAU^FGA (UAAUACUGCCUGGUAAUGAUGA; RNA, [5FU] at 1, 4, 7, 11, 14, 17, 20, backbone not given here) [modified miR-200b, miR-200b in which all (7) U bases are replaced by 5-fluorouracil]” was tested. Which “lung cancer cell proliferation” value (A549 lung cancer cells) did it give?
**A.** Its value is “inhibited”.

**Q.** What about the TS-FdUMP break down (TS-FdUMP) of the same substance?
**A.** Its TS-FdUMP break down is “breaks down TS-FdUMP”.

**Q.** And the “leukemia cancer cell proliferation” value [1]?
**A.** Its value is “inhibited”.

**Q.** What about the “cell proliferation without delivery vehicle (no oligofectamine)” value [7] of the same substance?
**A.** The value was “effectively reduced cell proliferation”.

**Q.** What about the “cell proliferation in the presence of oligofectamine” value [7] of the same substance?
**A.** The value was “dramatically reduced the cell growth from day 3”.

**Q.** What about the “fibronectin (miR-200b target gene) expression” value (fibronectin) of the same substance?
**A.** The value was “reduction of fibronectin”.

**Q.** What about the “cell proliferation, dose dependence” value [2] of the same substance?
**A.** The value was “inhibited in a dose dependent manner”.

**Q.** And the “cell proliferation, dose dependence” value [3]?
**A.** The value was “inhibited in a dose dependent manner”.

**Q.** And the “sub G1 and G1/S ratio” value [10]?
**A.** Its value is “significantly increase”.

**Q.** And the “leukemia cancer cell proliferation, dose dependence” value [4]?
**A.** The value was “inhibited in a dose dependent manner”.

**Q.** And the “breast cancer cell proliferation” value [5]?
**A.** The value was “inhibited”.

**Q.** What about the “pancreatic cancer cell proliferation” value [6] of the same substance?
**A.** The value was “inhibited”.

**Q.** And the “gastric cancer cell proliferation” value (AGS stomach cancer cells)?
**A.** The value was “inhibited”.
